From patent US10882833B2, “Phenylate derivative, preparation method therefor, and pharmaceutical composition and uses thereof” (Institute of Materia Medica, Chinese Academy of Medical …, priority 2016, dated 2021)
Where a name gives a salt, the structure may show the parent alone.

Target: interaction between PD-1 and PD-L1 (Homo sapiens (Human), UniProt Q9NZQ7)
Experiment: Cisbio PD-1/PD-L1 binding assay kit (HTRF)
Conditions: 8-10 concentrations, read-out: IC50, inhibitory activity at molecular level on the interaction between PD-1 and PD-L1
Description: • 1. In vitro activity evaluation: Cisbio PD-1/PD-L1 binding assay kit was applied for the detection method of in vitro enzymology level. Screening Principles and Methods of PD-1/PD-L1 Small Molecule Inhibitors • 1) Principle: PD-1 protein is with HIS tag, and PD-1 ligand PD-L1 is with hFc tag. Eu labeled anti-hFc antibody and XL665 labeled anti-HIS antibody are combined with the above two label proteins respectively. After laser excitation, energy can be transferred from donor Eu to receptor XL665, allowing XL665 to glow. […] Reagents should be dispensed in the following order. For 384-well white ELISA plate, 2 μl of diluent or target compound diluted with diluent was added to each well, and then 4 μl of PD-1 protein and 4 μl of PD-L1 protein were added per well, incubated for 15 min at room temperature; and 10 μl of a mixture of anti-Tag1-Eu3+ and anti-Tag2-XL665 was added per well and incubated for 1 h to 4 h at room temperature and the fluorescence signals at 665 nm and 620 nm were measured with an Envison instrument. HTRF rate=(665 nm/620 nm)*10^4. 8-10 concentrations were detected for each compound and IC50 was calculated by Graphpad software. • 3) The results of the screening were shown in Table 1.

interaction between PD-1 and PD-L1, sequence (Q9NZQ7 19-238): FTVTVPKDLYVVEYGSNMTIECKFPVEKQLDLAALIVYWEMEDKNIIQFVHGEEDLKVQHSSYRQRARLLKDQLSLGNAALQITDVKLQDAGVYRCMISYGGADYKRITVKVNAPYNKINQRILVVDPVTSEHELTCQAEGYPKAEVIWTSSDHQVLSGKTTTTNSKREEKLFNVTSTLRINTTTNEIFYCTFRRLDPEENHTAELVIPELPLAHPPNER

Question: With CN(C)C(=O)COc1cc(OCc2cccc(-c3ccccc3)c2Br)c(Cl)cc1CNC(CO)C(=O)O (stereo not shown) [Example 6] as the molecule, how does the IC50 read?
Answer: The IC50 was 42.5 nM.

Question: Which IC50 does the source give for CC(=O)NCCNCc1cc(Cl)c(OCc2cccc(-c3ccccc3)c2Br)cc1OCC1CC1 [Example 5, N-acetylaminoethyl-4-(2-bromo-3-phenylbenzyloxy)-5-chloro-2-(cyclopropylmethoxy)benzylamine] here?
Answer: Its IC50 is 1150 nM.

Question: Which IC50 does the source give for C#CCOc1cc(OCc2cccc(-c3ccccc3)c2Br)c(Cl)cc1CNCCNC(C)=O [Example 4, N-acetylaminoethyl-4-(2-bromo-3-phenylbenzyloxy)-5-chloro-2-(prop-2-ynyloxy)benzylamine] here?
Answer: Its IC50 is 1800 nM.

Question: With COc1cc(OCc2cccc(-c3ccccc3)c2Br)c(Cl)cc1CNCCNC(C)=O [Example 2, N-acetylaminoethyl-4-(2-bromo-3-phenylbenzyloxy)-5-chloro-2-methoxy benzylamine hydrochloride] as the molecule, how does the IC50 read?
Answer: The IC50 was 732 nM.

Question: With NC(=O)[C@H](CO)NCc1cc(Cl)c(OCc2cccc(-c3ccccc3)c2Br)cc1OCC1CC1 (stereo in doubt) [Example 9, 2-(4-(2-bromo-3-phenylbenzyloxy)-5-chloro-2-(cyclopropylmethoxy)benzylamino)-3-hydroxypropanamide] as the molecule, how does the IC50 read?
Answer: The IC50 was 81.6 nM.

Question: Which IC50 does the source give for NC(=O)COc1cc(OCc2cccc(-c3ccccc3)c2Br)c(Cl)cc1CN[C@@H](CO)C(=O)O [Example 1, (S)—N-(4-(2-bromo-3-phenylbenzyloxy)-5-chloro-2-(carbamoylmethoxy)benzyl)serine] here?
Answer: The IC50 was 312 nM.

Question: With NC(=O)NCCC[C@H](NCc1cc(Cl)c(OCc2cccc(-c3ccccc3)c2Br)cc1OCC1CC1)C(=O)O [Example 11, N-(4-(2-bromo-3-phenylbenzyloxy)-5-chloro-2-(cyclopropylmethoxy)benzyl)Citrulline] as the molecule, how does the IC50 read?
Answer: The IC50 was 1410 nM.

Question: For CC(=O)NCCNCc1cc(Cl)c(OCc2cccc(-c3ccccc3)c2Br)cc1OCC1CC1 [Example 10, N-acetylaminoethyl-4-(2-bromo-3-phenylbenzyloxy)-5-chloro-2-(cyclopropylmethoxy)benzylamine], which IC50 is on record?
Answer: The IC50 was 1000 nM.

Question: With O=C(O)[C@H](CO)NCc1cc(Cl)c(OCc2cccc(-c3ccccc3)c2Br)cc1OCC(=O)N1CCOCC1 [Example 13, N-(4-(2-bromo-3-phenylbenzyloxy)-5-chloro-2-(2-morpholino-2-oxoethoxy)benzyl)serine] as the molecule, how does the IC50 read?
Answer: The IC50 was 41.3 nM.

Question: Which IC50 does the source give for O=C(COc1cc(OCc2cccc(-c3ccccc3)c2Br)c(Cl)cc1CN1CCCC[C@H]1C(=O)O)NO [Example 15, (S)—N-(4-(2-bromo-3-phenylbenzyloxy)-5-chloro-2-(N-hydroxycarbamoylmethoxy)benzyl)Pipecolinic Acid] here?
Answer: The IC50 was 183 nM.

Question: Which IC50 does the source give for CON(C)C(=O)COc1cc(OCc2cccc(-c3ccccc3)c2Br)c(Cl)cc1CN[C@@H](CO)C(=O)O [Example 12, N-(4-(2-bromo-3-phenylbenzyloxy)-5-chloro-2-(N-methoxy-N-methylcarbamoylmethoxy)benzyl)serine] here?
Answer: Its IC50 is 191 nM.

Question: With O=C(O)[C@H](CO)NCc1cc(Cl)c(OCc2cccc(-c3ccccc3)c2Br)cc1OCC1CC1 [Example 14, (S)—N-(4-(2-bromo-3-phenylbenzyloxy)-5-chloro-2-(cyclopropylmethoxy)benzyl)serine] as the molecule, how does the IC50 read?
Answer: The IC50 was 41.7 nM.

Question: With C=CCOc1cc(OCc2cccc(-c3ccccc3)c2Br)c(Cl)cc1CNCCNC(C)=O [Example 3, N-acetylaminoethyl-4-(2-bromo-3-phenylbenzyloxy)-5-chloro-2-allyloxy benzylamine] as the molecule, how does the IC50 read?
Answer: The IC50 was 126 nM.

Question: With O=C(O)[C@@H]1C[C@H](O)CN1Cc1cc(Cl)c(OCc2cccc(-c3ccc4c(c3)OCCO4)c2Br)cc1OCC1CC1 [Example 17, (S,S)—N-(4-(2-bromo-3-(2,3-dihydrobenzo[b][1,4]dioxin-6-yl)benzyloxy)-5-chloro-2-(cyclopropylmethoxy)benzyl)-4-hydroxyproline] as the molecule, how does the IC50 read?
Answer: Its IC50 is 40.5 nM.

Question: With C[C@@H](O)[C@H](NCc1cc(Cl)c(OCc2cccc(-c3ccccc3)c2Br)cc1OCC1CC1)C(=O)O [Example 8, N-(4-(2-bromo-3-phenylbenzyloxy)-5-chloro-2-(cyclopropylmethoxy)benzyl)threonine] as the molecule, how does the IC50 read?
Answer: The IC50 was 10.2 nM.

Tested on: pleural mesothelioma (PM)
Experiment: not given
Conditions: 25 patients with pleural mesothelioma; cited from earlier work

Question: With pembrolizumab [Keytruda] as the molecule, how does the disease control rate read?
Answer: Its disease control rate is 76%.

Question: What about the “overall response rate (ORR)” value of the same molecule?
Answer: The value was 28%.

Tested on: advanced Hodgkin's lymphoma (HL)
Experiment: not given
Conditions: patients with no treatment response to any approved drug; cited from earlier work

Question: With pembrolizumab [Keytruda] as the molecule, how does the “treatment outcome in advanced Hodgkin's lymphoma” value read?
Answer: Its value is “complete remission”.

Question: For nivolumab [Opdvio], which “treatment outcome in advanced Hodgkin's lymphoma” value is on record?
Answer: The value was “complete remission”.
